Assay results as given in the supplement of paper PMC11061612.

What was measured:
Assay in all cases: Bliss excess, mean over the matrix (fraction); higher = more synergy
[1] = test system: 639-V (Bladder Carcinoma)
Summary of the method: (§1)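 Bliss excess equals the observed combination effect minus the expected value EA + EB − EA·EB, where EA and EB are the effects of each agent alone. Combination Emax is the second-highest inhibition within the matrix. Inhibition was scaled from CellTiter-Glo 2.0 luminescence, with 0 set by vehicle wells and 1 by blank wells, after 72 hours of two-drug dosing of cells plated in 1536-well plates.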

[2] = test system: HARA (Squamous Cell Lung Carcinoma)
Summary of the method: as §1

[3] = test system: HCC-15 (Squamous Cell Lung Carcinoma)
Summary of the method: as §1

[4] = test system: HDLM-2 (Hodgkin's Lymphoma)
Summary of the method: as §1

HMV-II (Melanoma) = test system: HMV-II (Melanoma)
Summary of the method: as §1

[5] = test system: Hs-633T (Other Solid Carcinomas)
Summary of the method: as §1

[6] = test system: K5 (Thyroid Gland Carcinoma)
Summary of the method: as §1

[7] = test system: LoVo (Colorectal Carcinoma)
Summary of the method: as §1

[8] = test system: MHH-PREB-1 (B-Cell Non-Hodgkin's Lymphoma)
Summary of the method: as §1

Mewo (Melanoma) = test system: Mewo (Melanoma)
Summary of the method: as §1

NB14 (Neuroblastoma) = test system: NB14 (Neuroblastoma)
Summary of the method: as §1

NCI-H2461 (Mesothelioma) = test system: NCI-H2461 (Mesothelioma)
Summary of the method: as §1

NCI-H28 (Mesothelioma) = test system: NCI-H28 (Mesothelioma)
Summary of the method: as §1

[9] = test system: RKO (Colorectal Carcinoma)
Summary of the method: as §1

[10] = test system: RT-112 (Bladder Carcinoma)
Summary of the method: as §1

[11] = test system: SU-DHL-6 (B-Cell Non-Hodgkin's Lymphoma)
Summary of the method: as §1

[12] = test system: SUP-T1 (T-Lymphoblastic Leukemia)
Summary of the method: as §1

[13] = test system: SW1116 (Colorectal Carcinoma)
Summary of the method: as §1

[14] = test system: TE-4 (Esophageal Squamous Cell Carcinoma)
Summary of the method: as §1

[15] = test system: UMC-11 (Other Solid Carcinomas)
Summary of the method: as §1

| Structure (SMILES) | Bliss excess [1] | Bliss excess [2] | Bliss excess [3] | Bliss excess [4] | Bliss excess (HMV-II (Melanoma)) | Bliss excess [5] | Bliss excess [6] | Bliss excess [7] | Bliss excess [8] | Bliss excess (Mewo (Melanoma)) | Bliss excess (NB14 (Neuroblastoma)) | Bliss excess (NCI-H2461 (Mesothelioma)) | Bliss excess (NCI-H28 (Mesothelioma)) | Bliss excess [9] | Bliss excess [10] | Bliss excess [11] | Bliss excess [12] | Bliss excess [13] | Bliss excess [14] | Bliss excess [15] |
| --- | --- | --- | --- | --- | --- | --- | --- | --- | --- | --- | --- | --- | --- | --- | --- | --- | --- | --- | --- | --- |
| COc1nnc2ccc(N3CCC(c4ccc(OCCN5CCN(C)C(=O)[C@H]5C)cc4)CC3)nn12 [AZD5153] + C=CCn1c(=O)c2cnc(Nc3ccc(N4CCN(C)CC4)cc3)nc2n1-c1cccc(C(C)(C)O)n1 [AZD1775] (first compound max 1 µM, partner max 1 µM) | -0.0367 | -0.0899 | -0.0356 | -0.125 | -0.0783 | -0.0516 | -0.0111 | -0.0349 | 0.007 | -0.0245 | -0.073 | -0.0344 | -0.0562 | -0.0866 | -0.0342 | -0.0656 | -0.068 | -0.0506 | -0.0199 | 0.0058 |
| Cc1c2c(nn1C)CSCc1cc(n(C)n1)CSc1cc(c3ccccc3c1)OCCCc1c(C(=O)O)n(C)c3c-2c(Cl)ccc13 [AZD5991] + C[C@@H](Nc1cc(F)cc(F)c1)c1cc(C(=O)N(C)C)cc2c(=O)cc(N3CCOCC3)oc12 [AZD8186] (first compound max 1 µM, 7x7, partner max 3 µM) | 0.0519 | -0.0036 | -0.0047 | -0.0351 | -0.0401 | 0.0127 | -0.0231 | 0.0005 | -0.0069 | -0.0411 | 0.0059 | -0.0062 | -0.0245 | -0.0116 | 0.0316 | -0.002 | -0.0003 | 0.0046 | 0.0492 | -0.039 |
| CC(=O)c1c(C)c2cnc(Nc3ccc(N4CCNCC4)cn3)nc2n(C2CCCC2)c1=O [Palbociclib] + Cn1cnc2c(F)c(Nc3ccc(Br)cc3Cl)c(C(=O)NOCCO)cc21 [Selumetinib] (first compound max 10 µM, 7x7, partner max 10 µM) | -0.0833 | 0.0219 | -0.0069 | -0.0362 | -0.0203 | 0.0767 | -0.0341 | 0.0093 | -0.0401 | -0.0844 | 0.0461 | -0.0034 | -0.0508 | 0.082 | -0.0333 | 0.167 | -0.0478 | -0.0189 | -0.0115 | 0.079 |
| CC(=O)c1c(C)c2cnc(Nc3ccc(N4CCNCC4)cn3)nc2n(C2CCCC2)c1=O [Palbociclib] + Cc1c2c(nn1C)CSCc1cc(n(C)n1)CSc1cc(c3ccccc3c1)OCCCc1c(C(=O)O)n(C)c3c-2c(Cl)ccc13 [AZD5991] (first compound max 10 µM, 7x7, partner max 1 µM) | -0.0492 | 0.021 | -0.0501 | -0.072 | -0.0185 | 0.004 | -0.046 | -0.0584 | -0.0405 | -0.0291 | -0.0498 | -0.056 | -0.0319 | 0.0342 | -0.0524 | 0.0709 | 0.0394 | -0.025 | -0.0598 | -0.0475 |
| CC1(C)CCC(CN2CCN(c3ccc(C(=O)NS(=O)(=O)c4ccc(NCC5CCOCC5)c([N+](=O)[O-])c4)c(Oc4cnc5[nH]ccc5c4)c3)CC2)=C(c2ccc(Cl)cc2)C1 [Venetoclax] + C1CN(CCC1(C(=O)N[C@@H](CCO)C2=CC=C(C=C2)Cl)N)C3=NC=NC4=C3C=CN4 [Capivasertib] (first compound max 1 µM, 7x7, partner max 3 µM) | -0.108 | -0.009 | -0.0286 | -0.0166 | -0.0444 | -0.0185 | -0.0618 | -0.0419 | -0.0398 | -0.0093 | -0.0461 | -0.0184 | -0.0848 | -0.0173 | -0.0313 | 0.0537 | -0.0641 | -0.0491 | -0.0421 | -0.038 |
| Cn1cnc2c(F)c(Nc3ccc(Br)cc3Cl)c(C(=O)NOCCO)cc21 [Selumetinib] + C=CCn1c(=O)c2cnc(Nc3ccc(N4CCN(C)CC4)cc3)nc2n1-c1cccc(C(C)(C)O)n1 [AZD1775] (first compound max 10 µM, partner max 1 µM) | -0.0207 | -0.0406 | 0.0018 | -0.092 | -0.0494 | -0.0094 | -0.0375 | -0.0105 | -0.0531 | -0.0304 | -0.0193 | -0.0676 | -0.0376 | -0.0202 | -0.0352 | -0.0229 | -0.0663 | -0.0031 | -0.0849 | 0.0137 |
| CC1(C)CCC(CN2CCN(c3ccc(C(=O)NS(=O)(=O)c4ccc(NCC5CCOCC5)c([N+](=O)[O-])c4)c(Oc4cnc5[nH]ccc5c4)c3)CC2)=C(c2ccc(Cl)cc2)C1 [Venetoclax] + C=CCn1c(=O)c2cnc(Nc3ccc(N4CCN(C)CC4)cc3)nc2n1-c1cccc(C(C)(C)O)n1 [AZD1775] (first compound max 1 µM, partner max 1 µM) | -0.0322 | 0.0494 | -0.0355 | 0.0749 | -0.0542 | 0.017 | -0.0279 | -0.0625 | -0.0328 | -0.0079 | 0.0967 | 0.0234 | -0.048 | 0.0487 | 0.0891 | 0.0009 | 0.0425 | -0.0214 | -0.0529 | -0.0679 |
